Patent US10092537B2, “Use for PAI-1 inhibitor” (RENASCIENCE CO., LTD., priority 2013, dated 2018)

Key:
[1] = tested on: CML cells (32Dp210-GFP cells); test: Chronic myelogenous leukemia model mice, imatinib and compound c (Experimental Example 12); type: in vivo
Experimental: Chronic myelogenous leukemia model mice prepared in the same manner as in Experimental Example 11 were divided into the following 3 groups (each group: n=10), and the groups were administered respective test drugs in accordance with the protocol shown in FIG. 15A.
Group 1: placebo group (physiological saline was administered via gavage)
Group 2: imatinib group (imatinib [150 mg/kg/day] was administered via gavage)
Group 3: imatinib+compound c group (imatinib [150 mg/kg/day] and compound c [10 mg/kg/day] were administered via gavage)
8 days (day 8) after the day on which CML cells (32Dp210-GFP cells) were intravenously inoculated (day 0), administration of the test drugs to the groups was started. The placebo group and the imatinib group were administered the respective test drugs once a day from day 8 to day 14 (7 doses in total). The imatinib+compound c group was administered imatinib once a day from day 8 to day 14 (7 doses in total), and also administered compound c once a day from day 8 to day 14 (7 doses in total).

Her2-A20 cell = Her2-A20 cell subcutaneous tumor, Herceptin and compound c (Experimental Example 19); type: in vivo, BALB/c-nude mice; conditions: Herceptin 20 mg/kg i.p. (2 doses) + compound c 10 mg/kg/day oral; 15 days after administration
Experimental: At first, A20 cell line (mouse B lymphoma) was transfected with human Her2 cDNA using MIGR1 vector to prepare transformed cells (hereinafter, “Her2-A20 cell”). The Her2-A20 cells (5×10^6) were subcutaneously inoculated into BALB/c-nude mice. […] Compound c or physiological saline was administered once a day, 5 doses in total (day 0 to day 4). […] Compound c or physiological saline was administered once a day, 7 doses in total (day 7 to day 13).

[2] = 2-week repeated-dose toxicity test using rat (Experimental Example 6); type: in vivo, Sprague-Dawley rats; conditions: 200, 600 and 2,000 mg/kg/day oral, repeatedly for 2 weeks; male and female rats
Experimental: Compound a was orally administered in 0 (0.5 w/v % carmellose sodium solution), 200, 600 and 2,000 mg/kg/day dosages to a male rat group and a female rat group each containing 5 Sprague-Dawley rats (Crl:CD(SD), 6-week old at the onset of administration) repeatedly for 2 weeks, and a toxicity test was conducted.

[3] = Pharmacokinetics after oral gavage (Experimental Example 6); type: in vivo, male Wister rats; conditions: male, Wistar, rat, 50 mg/kg oral gavage, plasma, reversed-phase HPLC
Experimental: Compound a (50 mg/kg) was administered to male Wister rats (180-200 g) via oral gavage. Before administration (0 h), and 1, 2, 6 and 24 hours after the administration, blood was collected, and the concentration of compound a in plasma of each […] was analyzed by reversed-phase HPLC. The time at which the maximum drug concentration in blood is observed (Tmax), the maximum drug concentration (Cmax), and half-life (T½) were determined.

hematopoietic stem cells = test: Fibrinolytic pathway activation and bone-marrow regeneration after lethal radiation (9Gy) and bone-marrow transplantation, compound a versus recombinant tPA (Experimental Example 7)
Experimental: Within 4 hours, 1.0×10^6 bone-marrow mononucleic cells (BM MNC) were intravenously inoculated into retro-orbital plexus. Concurrently with transplantation, compound a (dosage 100 mg/kg) or recombinant tPA (dosage 100 mg/kg, Eisai Co., Ltd) were administered as a test compound via oral gavage, and the test compound was orally administered for 5 consecutive days (administered group). As a control test, instead of the test compound, physiological saline (vehicle) used for dissolving compound a was orally administered in the same manner (control group).
Blood was collected 2 and 7 days after bone-marrow transplantation, and the active PAI-1 level (ng/mL), active tissue-type plasminogen activator (active tPA), plasmin level (ng/mL), cKit ligand, and total MMP-9 (Matrix metalloprotein-9) in the plasma were measured.

[4] = 2 and 7 days after transplantation, among control, tPA and compound a groups
[5] = tPA group compared with control group, compound a group compared with tPA group

| Compound | survival rate on day 40 ([1]; imatinib 150 mg/kg/day + compound c 10 mg/kg/day via gavage, day 8 to day 14) [%] | median survival period ([1]; imatinib 150 mg/kg/day + compound c 10 mg/kg/day, placebo 15.5 days) [days] | tumor volume versus other groups (Her2-A20 cell) | change in general state, weight, food intake, urine test, hematological test, blood chemical test, pathological test [2] | Cmax [3] [ng/mL] | Tmax [3] [h] | half-life ([3]; read-out: T½ (converted)) [h] | level of cKitL in plasma (hematopoietic stem cells; [4]) | level of plasmin in plasma (hematopoietic stem cells; [4]) | level of total MMP-9 in plasma (hematopoietic stem cells; [4]) | level of active tPA in plasma (hematopoietic stem cells; 7 days after transplantation, among control, tPA and compound a groups) | expression of active PAI-1 in the plasma (hematopoietic stem cells; compound a or recombinant tPA 100 mg/kg, 5 consecutive days, 2 and 7 days after bone-marrow transplantation) | survival rate on day 28 from bone-marrow transplantation (hematopoietic stem cells; lethal radiation 9Gy, 100 mg/kg, 5 consecutive days, n=15, control group 20%) [%] | platelet count in the peripheral blood (hematopoietic stem cells; [5]) | white blood cell count in the peripheral blood (hematopoietic stem cells; [5]) |
| --- | --- | --- | --- | --- | --- | --- | --- | --- | --- | --- | --- | --- | --- | --- | --- |
| O=C(Nc1ccc(Cl)cc1C(=O)O)c1cccc(-c2ccccc2)c1 [Example 4, 2-[(biphenyl-3-ylcarbonyl)amino]-5-chlorobenzoic acid] | 70 | 40 | significantly smaller |  |  |  |  |  |  |  |  |  |  |  |  |
| O=C(COCC(=O)N1CCN(C(c2ccccc2)c2ccccc2)CC1)Nc1ccc(Cl)cc1C(=O)[O-].[Na+] [Example 30 (compound group 2), 2-(2-(2-(4-benzhydrylpiperazin-1-yl)-2-oxoethoxy)acetamido)-5-chlorobenzoic acid sodium salt] |  |  |  | no obvious change | 35700 | 2 | 2.5 | highest level | highest level | highest level | highest level | did not exhibit an expression of active PAI-1 | 70 | significantly increased | significantly increased |
